Legend:
[1] = Airway hyperresponsiveness (sRaw) to methacholine in ovalbumin asthma model; format: in vivo, ova s/c BALB/c mice; settings: oral gavage, 100 mg/kg twice daily for 5 days, methacholine challenge
Procedure: Compounds described herein may reduce airway hyperresponsiveness in animal models of asthma. Therefore, mice may be sensitized three times with intra-peritoneal (i.p.) injections of 2 mg/kg/d of ovalbumin (Ova) emulsified in […] on days 0, 7 and 14 in a total volume of 100 μL. In addition, mice may be challenged intra-nasally (i.n.) with 1 mg/kg/d Ova for 5 days from days 23-27. Control mice may be sensitized with Ova and challenged with saline. The airway hyperresponsiveness measurements may be carried out with DSI's Buxco® FinePointe Non-Invasive Airway Mechanics (NAM) instrument consisting of a nasal chamber in combination with the thoracic chamber that allows the computation of specific airway resistance (sRaw). Treated conscious, spontaneously breathing Ova S/C mice may be exposed to aerosolized phosphate buffered saline (PBS) (for the baseline measurement) or methacholine (1.5625-12.5 mg/mL) for 1 minute and readings (sRaw) may be taken and averaged for 3 minutes after each nebulization.
Drug treatment protocol: Sterile solutions of compounds were prepared in 2% hydroxypropyl methylcellulose solution (Sigma-Aldrich, St. Louis, Mo.) and 2.5% polyethylene glycol (Sigma Aldrich, St. Louis, Mo.) for oral administration in a biological safety cabinet. A fine suspension was obtained by grinding the mixture with a mortar and pestle. Drugs were administered individually at 100 mg/kg by oral gavage (200 ul) with 20G gavage needles (Kent Scientific Corporation, Torrington Conn.) to groups of ova s/c BALB/c twice daily for 5 days during the ova challenge period. Mice received a single p.o. dose of the compounds just before airway parameter measurements. Compounds for i.p. injection were prepared in 10% DMSO, 40% propylene glycol, and 50% PBS and given as 100 ul injection. Mice were monitored daily after drug administration. Assessment of Airway hyper-responsiveness: Airway hyper-responsiveness to methacholine in conscious, spontaneously breathing animals was measured by DSI's Buxco® FinePointe Non-Invasive Airway Mechanics (NAM) instrument. Before measurements were taken, mice were acclimated to the chambers 15 minutes daily for 5 days. In addition, an ovalbumin sensitization and challenge protocol consists of randomized male BALB/c mice that were sensitized three times with intra-peritoneal (i.p.) injections of 2 mg/kg/d of ovalbumin (Ova) (Sigma-Aldrich, St. Louis, Mo.) emulsified in 2 mg of Alum (Imject Alum; Thermo Scientific, Pierce, Rockford, Ill.) on days 0, 7 and 14 in a total volume of 100 μL. The mice were then challenged intra-nasally (i.n.) with 1 mg/kg/d Ova for 5 days from days 23-27. Control mice were sensitized with Ova and challenged with saline. The chambers were also calibrated each time before data collection. Briefly, the nasal chamber in combination with the thoracic chamber allows the computation of specific airway resistance (sRaw). The FinePointe software computes specific airway resistance (sRaw) with all other ventilatory parameters derived by the NAM analyzer. Mice were exposed to aerosolized PBS (for the baseline measurement) or methacholine (1.5625-12.5 mg/mL) for 1 minute and readings were taken and averaged for 3 minutes after each nebulization. Data obtained were presented as sRaw versus the methacholine concentration (mg/mL) used to generate the aerosol. FIG. 5A-5F show compound effects on airway hyperresponsiveness. Specific airway resistance (sRaw) was measured at increasing dosages of methacholine by a DSI's Buxco FinePointe non-invasive airway mechanics instrument. Ova s/c BALB/c mice were administered all compounds via oral gavage, 100 mg/kg twice daily for 5 days. Data represent mean±SEM from 10 mice in each group. *, **, and *** indicate p<0.05, p<0.01, p<0.001 significance, respectively, compared to vehicle treated ova s/c BALB/c mice.

[2] = tested on: inflammatory cells, eosinophils, CD4+ T cells in BALF; assay: Inflammatory cell numbers in BALF by flow cytometry; format: in vivo, ova s/c BALB/c mice; settings: 100 mg/kg twice daily for 5 days
Procedure: The change of the number of specific immune cells caused by compounds may be investigated in the bronchoalveolar lavage fluid (BALF) of Ova S/C mice. Therefore, a bronchoalveolar lavage may be carried out followed by the lysis of red blood cells. Incubation of cell-type specific antibodies with BALF may allow the quantification of leukocytes such as eosinophils and CD4^+ T-lymphocytes using flow cytometry.
Determination of anti-inflammatory properties of compounds were investigated in an allergen induced mouse model of asthma. At the day of analysis, bronchoalveolar lavage (BAL) was performed with 1 mL of Ca2+ and Mg2+ free PBS. Red blood cells (RBCs) were lysed using BD red blood cell lysis buffer (BD Pharmingen, San Jose, Calif.). BALF was split into four different tubes and non-specific binding to Fc receptors was blocked for 5 minutes using 6 μg/mL of 2.4G2 mouse BD Fc Block™ (BD Pharmingen, San Jose, Calif.). BALF cells were stained for 30 minutes at 4° C. in the dark with 100 μL BSA stain buffer (BD Pharmingen, San Jose, Calif.) containing the final concentrations of the following antibodies: anti-mouse CD45 APC (1:1000, 30-F11, Affymetrix eBiosciences, San Diego, Calif.), FITC rat anti-mouse CD4 (1:500, RM4-5, BD Pharmingen, San Jose, Calif.), PE Rat Anti-Mouse Siglec F (1:500, E50-2440, BD Pharmingen, San Jose, Calif.) and mouse CCR3 PE-conjugated antibody (1:40, 83101, R&D systems Inc, Minneapolis, Minn.). Flow cytometric studies were done using the BD FACS Calibur (BD Pharmingen, San Jose, Calif.) and data analyzed subsequently using Cell Quest pro software (BD Pharmingen, San Jose, Calif.). General gating for immune cells were followed. Total inflammatory cell count was obtained by running all samples on high (60 μL/min) for 180 seconds. The gated anti-mouse CD45 positive events in the fourth channel (FL4) were used to calculate the total inflammatory cell count as cells/mL. The frequencies of CCR3+/Siglec F were used for quantification of eosinophils and CD4+ for CD4+ T cell populations in their respective gates were multiplied by the total inflammatory cell count (cells/mL) to obtain the differential cell population. Statistical analysis: Data were analyzed using GraphPad Prism 4 (GraphPad Software, San Diego, Calif.) and expressed as mean±SEM. One-way analysis of variance (ANOVA) with Dunnet post hoc test or two-way ANOVA with Bonferroni post hoc test were performed for statistical difference for multiple groups. FIGS. 7A-7C show effects of compounds on inflammatory cells. Groups of 10 ova s/c BALB/c mice were administered compounds at 100 mg/kg twice daily for 5 days. BALF was harvested from each animal and used for (A) quantification of total inflammatory cells; (B) eosinophils; (C) CD4^+ T cells. Cells were stained with mouse CD45^+ APC antibody, and samples were analyzed with BD FACS Calibur on high flow rate (60 μl/minute) for 180 seconds. The gated positive events in the fourth channel (FL4) were used to calculate the total inflammatory cell count as cells/ml. Quantification of specific leukocyte population (B) eosinophils (C) CD4^+ T cell populations were stained with specific antibodies and detected by flow cytometry. Data represent mean±SEM from 10 mice in each group. *, **, and *** indicate p<0.05, p<0.01, and p<0.001 significance, respectively, compared to vehicle treated ova s/c BALB/c mice.

SMILES	airway hyperresponsiveness (sRaw) [1]	numbers of CD4+ T cells [2]	numbers of eosinophils [2]	numbers of inflammatory cells in BALF [2]
C[C@H]1N=C(c2ccccc2F)c2cc(Br)ccc2-n2cnc(C(=O)O)c21 [GL-II-93, (R)-8-bromo-6-(2-fluorophenyl)-4-methyl-4H-benzo[f]imidazo[1,5-a][1,4]diazepine-3-carboxylic acid]	reduced airway hyperresponsiveness at one or multiple concentrations of methacholine	did reduce the numbers of eosinophils and CD4^+ T cells	did reduce the numbers of eosinophils	
CCOC(=O)c1ncn2c1[C@@H]1CCCN1C(=O)c1cc(O)ccc1-2 [RJ-02-50, ethyl (S)-7-hydroxy-9-oxo-11,12,13,13a-tetrahydro-9H-benzo[e]imidazo[5,1-c]pyrrolo[1,2-a][1,4]diazepine-1-carboxylate]	reduced airway hyperresponsiveness at one or multiple concentrations of methacholine	did reduce the numbers of eosinophils and CD4^+ T cells	did reduce the numbers of eosinophils	
O=C1c2cc(O)ccc2-n2cnc(-c3cnco3)c2[C@@H]2CCCN12 [RJ-03-30, (S)-7-hydroxy-1-(oxazol-5-yl)-11,12,13,13a-tetrahydro-9H-benzo[e]imidazo[5,1-c]pyrrolo[1,2-a][1,4]diazepin-9-one]	not able to alleviate airway hyperresponsiveness			did not modulate the numbers of inflammatory cells
C#Cc1ccc2c(c1)C(c1ccccc1F)=N[C@H](C)c1c(C(=O)O)ncn1-2 [SH-053-2′F-R-CH3-Acid, (R)-8-ethynyl-6-(2-fluorophenyl)-4-methyl-4H-benzo[f]imidazo[1,5-a][1,4]diazepine-3-carboxylic acid]	reduced airway hyperresponsiveness at one or multiple concentrations of methacholine	but not CD4^+ T cells	reduced the numbers of eosinophils	

Source: patent publication US11447495B2, “Substituted benzo[f]imidazo[1,5-a][1,4]diazepines as GABA(a) receptor modulators” (priority 2016, dated 2022)
